# Experimental data taken from patent publication US12528818B2, “Compositions and methods for inhibition of RAS” (Leidos Biomedical Research, Inc., priority 2021, dated 2026).
# pIC50: −log10 of the molar value.
# System: pERK in NCI-H358 cells
# Experiment: Cell-based pERK HTRF assay (pERK inhibition in H358 cells)
# Settings: Homo sapiens, NCI-H358, 0.5 h, pERK inhibition IC50, NCI-H358 cells, 30 min incubation; read-out: PERK in H358 cell
row,Compound,pIC50
1,C=CC(=O)N1CCN(c2nc(OC[C@@H]3CCCN3C)nc3c(F)c(-c4ccc(F)c5sc(N)nc45)c(Cl)cc23)CC1 [Compound 44],> 7.00
2,C=CC(=O)N1CC[C@@H]2[C@H]1CN2c1nc(OCC23CCCN2CCC3)nc2c(F)c(-c3ccc(F)c4sc(N)nc34)c(-c3ccoc3)cc12 [Compound 121],< 6.00
3,C=C(F)C(=O)N1CCN(c2nc(OC[C@]34CCCN3C[C@H](F)C4)nc3c(F)c(-c4ccc(F)c5sc(N)nc45)c(C(F)(F)F)cc23)[C@H](C)C1 [Compound 199],6.00 to 7.00
4,"C=CC(=O)N1CCN(c2nc(OCC34CCCN3CC(C)(C)C4)nc3c(F)c(-c4ccc(F)c5sc(N)nc45)c(C(F)(F)F)cc23)CC1 (stereo not shown) [Compound 171, 1-(4-(7-(2-amino-7-fluorobenzo[d]thiazol-4-yl)-2-((2,2-dimethyltetrahydro-1H-pyrrolizin-7a(5H)-yl)methoxy)-8-fluoro-6-(trifluoromethyl)quinazolin-4-yl)piperazin-1-yl)prop-2-en-1-one]",> 7.00
5,C=CC(=O)N1CC[C@@H](N(C)c2nc(OC[C@@]34CCCN3C[C@H](F)C4)nc3c(F)c(-c4ccc(F)c5sc(N)c(C#N)c45)c(C(F)(F)F)cc23)[C@H]1CF [Compound 337],> 7.00
6,C=CC(=O)N1C[C@H](C)N(c2nc(OC[C@@]34CCCN3C[C@H](F)C4)nc3cc(-c4ccc(F)c5sc(N)c(C#N)c45)c(C(F)(F)F)cc23)C[C@H]1C [Compound 304],> 7.00
7,C=CC(=O)N1C[C@@H]2C[C@H]1[C@@H]2N(C)c1nc(OC[C@@]23CCCN2C[C@H](F)C3)nc2c(F)c(-c3ccc(F)c4sc(N)nc34)c(C(F)(F)F)cc12 [Compound 282],< 6.00
8,"CC#CC(=O)N1CC(Nc2nc(OC[C@@H]3CCCN3C)nc3c(F)c(-c4ccc(F)c5sc(N)nc45)c(Cl)cc23)C1 [Compound 92, 1-[3-[[7-(2-amino-7-fluoro-1,3-benzothiazol-4-yl)-6-chloro-8-fluoro-2-[[(2S)-1-methylpyrrolidin-2-yl]methoxy]quinazolin-4-yl]amino]azetidin-1-yl]but-2-yn-1-one]",< 6.00
9,C=CC(=O)N1CCN(c2nc(OC[C@@]34CCCN3C[C@H](F)C4)nc3c(F)c(-c4ccc(F)c5sc(N)c(C#N)c45)c(C(F)(F)F)cc23)CC1 [Compound 345],> 7.00
10,"C=CC(=O)N1CC[C@@H](N(C)c2c(C#N)c(OC[C@@]34CCCN3C[C@H](F)C4)nc3c(F)c(-c4ccc(F)c5sc(N)nc45)c(Cl)cc23)C1 (atropisomer, axis not shown) [Compound 234]",< 6.00
11,"C=CC(=O)N1C[C@H](C)N(c2nc(N3CC(N4CC5(CC5)C4)C3)nc3c(F)c(-c4ccc(F)c5sc(N)c(C#N)c45)c(C(F)(F)F)cc23)C[C@H]1C [Compound 338, 4-(2-(3-(5-azaspiro[2.3]hexan-5-yl)azetidin-1-yl)-4-((2S,5R)-4-acryloyl-2,5-dimethylpiperazin-1-yl)-8-fluoro-6-(trifluoromethyl)quinazolin-7-yl)-2-amino-7-fluorobenzo[b]thiophene-3-carbonitrile]",> 7.00
12,C=C(F)C(=O)N1CCN(c2nc(OC[C@@]34CCCN3C[C@H](F)C4)nc3c(F)c(-c4ccc(F)c5sc(N)nc45)c(C(F)(F)F)cc23)CC1 [Compound 186],6.00 to 7.00
13,C=CC(=O)N1CC(Nc2nc(C3CCN(C)CC3)nc3c(F)c(-c4ccc(F)c5sc(N)nc45)c(Cl)cc23)C1 [Compound 60],< 6.00
14,C=CC(=O)N1C[C@@H](F)[C@@H](N(CC)c2nc(OC[C@@]34CCCN3C[C@H](F)C4)nc3cc(-c4ccc(F)c5sc(N)c(C#N)c45)c(Cl)cc23)C1 [Compound 370],> 7.00
15,C=CC(=O)N1CC[C@@H](N(C)c2nc(OC[C@@]34CCCN3C[C@H](F)C4)nc3c(F)c(-c4ccc(F)c5sc(N)nc45)c(C#N)cc23)[C@H]1C [Compound 373],6.00 to 7.00
16,C=CC(=O)N1C[C@H](C)N(c2nc(OC[C@@]34CCCN3C[C@H](OC)C4)nc3c(F)c(-c4ccc(F)c5sc(N)c(C#N)c45)c(Cl)cc23)C[C@H]1C [Compound 367],> 7.00
17,"C=CC(=O)N1C[C@H](C)N(c2nc(OC[C@@]34CCCN3C[C@H](F)C4)nc3c(F)c(-c4ccc(F)c5sc(N)c(C#N)c45)c(C#N)cc23)C[C@H]1C [Compound 324, 4-((2S,5R)-4-acryloyl-2,5-dimethylpiperazin-1-yl)-7-(2-amino-3-cyano-7-fluorobenzo[b]thiophen-4-yl)-8-fluoro-2-(((2R,7aS)-2-fluorotetrahydro-1H-pyrrolizin-7a(5H)-yl)methoxy)quinazoline-6-carbonitrile]",> 7.00
18,C=CC(=O)N1CC[C@@H]2[C@H]1CN2c1nc(OC[C@@H]2CCCN2C)nc2c(F)c(-c3ccc(F)c4sc(N)nc34)c(Cl)cc12 [Compound 66],> 7.00
19,"C=CC(=O)N1CC(N(c2nc(OC[C@]34CCCN3C[C@H](F)C4)nc3c(F)c(-c4ccc(F)c5sc(N)nc45)c(C(F)(F)F)cc23)C2CC2)C1 [Compound 178, 1-(3-((7-(2-amino-7-fluorobenzo[d]thiazol-4-yl)-8-fluoro-2-(((2R,7aR)-2-fluorotetrahydro-1H-pyrrolizin-7a(5H)-yl)methoxy)-6-(trifluoromethyl)quinazolin-4-yl)(cyclopropyl)amino)azetidin-1-yl)prop-2-en-1-one]",6.00 to 7.00
20,C=CC(=O)N1CC[C@H](N(C)c2nc(OC[C@@]34CCCN3C[C@H](F)C4)nc3c(F)c(-c4ccc(F)c5sc(N)c(C#N)c45)c(F)cc23)C1 [Compound 336],6.00 to 7.00
21,"C=CC(=O)N1CC[C@@H](N(C)c2nc(OC[C@@]34CCCN3C[C@H](F)C4)nc3c(F)c(-c4ccc(F)c5sc(N)c(C#N)c45)ccc23)[C@H]1C [Compound 358, 4-(4-(((2R,3R)-1-acryloyl-2-methylpyrrolidin-3-yl)(methyl)amino)-8-fluoro-2-(((2R,7aS)-2-fluorotetrahydro-1H-pyrrolizin-7a(5H)-yl)methoxy)quinazolin-7-yl)-2-amino-7-fluorobenzo[b]thiophene-3-carbonitrile]",> 7.00

# More lines, now with the values ahead:
row,pIC50,Compound
1,6.00 to 7.00,C=CC(=O)N1CCC(N(C)c2nc(OC[C@@]34CCCN3C[C@H](F)C4)nc3c(C#N)c(-c4ccc(F)c5sc(N)c(C#N)c45)ccc23)[C@H]1COC (stereo partly shown) [Compound 394]
2,> 7.00,C=CC(=O)N1CC[C@@H](N(C)c2nc(OC[C@@]34CCCN3C[C@H](F)C4)nc3cc(-c4ccc(F)c5sc(N)c(C#N)c45)c(F)cc23)[C@H]1COC [Compound 391]
3,< 6.00,C=CC(=O)N1CCC(N(C)c2ncnc3c(F)c(-c4ccc(F)c5sc(N)c(C#N)c45)ccc23)[C@H]1C (stereo partly shown) [Compound 462]
4,> 7.00,C=CC(=O)N1C[C@@H](F)[C@@H](N(CC)c2nc(OC[C@@]34CCCN3C[C@H](F)C4)nc3cc(-c4ccc(F)c5sc(N)c(C#N)c45)ccc23)C1 [Compound 377]
5,> 7.00,C=CC(=O)N1C[C@H](C)N(c2nc(OC)nc3c(F)c(-c4ccc(F)c5sc(N)c(C#N)c45)c(C(F)(F)F)cc23)C[C@H]1C [Compound 385]
6,> 7.00,"C=CC(=O)N1CC[C@H](N(C)c2nc(OC[C@@]34CCCN3C[C@H](F)C4)nc3c(F)c(-c4ccc(F)c5sc(N)c(C#N)c45)c(C(F)(F)F)cc23)[C@@H]1C (single isomer, unassigned) [Compound 472]"
7,> 7.00,C=CC(=O)N1CC[C@@H](N(C)c2nc(OC[C@@]34CCCN3C[C@H](F)C4)nc3cc(-c4ccc(F)c5sc(N)c(C#N)c45)c(C#N)cc23)[C@H]1COC [Compound 393]
8,> 7.00,C=CC(=O)N1C[C@@H](F)[C@@H](N(C)c2nc(OC[C@@]34CCCN3C[C@H](F)C4)nc3c(C#N)c(-c4ccc(F)c5sc(N)c(C#N)c45)c(Cl)cc23)C1 [Compound 379]
9,> 7.00,C=CC(=O)N1CCC(N(CC)c2nc(OC[C@@]34CCCN3C[C@H](F)C4)nc3c(C#N)c(-c4ccc(F)c5sc(N)c(C#N)c45)c(Cl)cc23)[C@H]1C (stereo partly shown) [Compound 411]
10,> 7.00,C=CC(=O)N1CCC(N(C)c2nc(OC[C@@H]3C[C@@H](OC)CN3C)nc3c(F)c(-c4ccc(F)c5sc(N)c(C#N)c45)c(Cl)cc23)[C@H]1C (stereo partly shown) [Compound 450]
11,> 7.00,C=CC(=O)N1CCC(N(CC)c2nc(OC[C@@]34CCCN3C[C@H](F)C4)nc3cc(-c4ccc(F)c5sc(N)c(C#N)c45)ccc23)[C@H]1C (stereo partly shown) [Compound 431]
12,> 7.00,C=CC(=O)N1CCC(N(CC)c2nc(OC[C@@H]3CCCN3C)nc3c(F)c(-c4ccc(F)c5sc(N)c(C#N)c45)c(C(F)(F)F)cc23)[C@H]1C (stereo partly shown) [Compound 396]
13,> 7.00,C=CC(=O)N1C[C@H](C)N(c2ncnc3c(F)c(-c4ccc(F)c5sc(N)c(C#N)c45)c(C(F)(F)F)cc23)C[C@H]1C [Compound 382]
14,> 7.00,C=CC(=O)N1CCC(N(C)c2nc(OC[C@@]34CCCN3C[C@H](OC)C4)nc3c(F)c(-c4ccc(F)c5sc(N)c(C#N)c45)c(Cl)cc23)[C@H]1C (stereo partly shown) [Compound 474]
15,> 7.00,"C=CC(=O)N1CC[C@@H](N(C)c2nc(OC[C@@]34CCCN3C[C@H](F)C4)nc3cc(-c4ccc(F)c5sc(N)c(C#N)c45)c(F)cc23)[C@H]1C [Compound 390, 4-(4-((1-acryloyl-2-methylpyrrolidin-3-yl)(methyl)amino)-6-fluoro-2-(((2R,7aS)-2-fluorotetrahydro-1H-pyrrolizin-7a(5H)-yl)methoxy)quinazolin-7-yl)-2-amino-7-fluorobenzo[b]thiophene-3-carbonitrile]"
16,> 7.00,C=CC(=O)N1C[C@H](C)N(c2nc(OC[C@@]34CCCN3C[C@H](F)C4)nc3c(Cl)c(-c4ccc(F)c5sc(N)c(C#N)c45)c(C#N)cc23)C[C@H]1C [Compound 422]

# Same assay, conditions: pERK inhibition IC50, NCI-H358 cells, 30 min incubation; read-out: PERK in H358 cell
row,pIC50,Compound
1,6.00 to 7.00,"C=CC(=O)N1CC[C@@H](N(C)c2nc(OC[C@@H]3C[C@@H](F)CN3C)nc3c(F)c(-c4ccc(F)c5sc(N)nc45)c(C(F)(F)F)cc23)C1 (atropisomer, axis not shown) [Compound 232]"
2,> 7.00,"C=CC(=O)N1CC[C@@H](N(c2nc(OC[C@@]34CCCN3C[C@H](F)C4)nc3c(F)c(-c4ccc(F)c5sc(N)nc45)c(C(F)(F)F)cc23)C2CC2)C1 (single isomer, unassigned) [Compound 236]"
3,> 7.00,"C=CC(=O)N1CC[C@@H](Nc2nc(OC[C@@]34CCCN3C[C@H](F)C4)nc3c(F)c(-c4ccc(F)c5sc(N)nc45)c(C(F)(F)F)cc23)C1 (single isomer, unassigned) [Compound 271]"
